Assays:
Assay type in all cases: physicochemical
[1] = Gravimetric Vapor Sorption (GVS); details: for solid form by XRPD re-analysis after GVS humidity cycles: reanalysis under ambient conditions, hydrochloride
Procedure: Gravimetric Vapor Sorption (GVS)
Sorption isotherms were obtained using a Hiden IGASorp moisture sorption analyser, controlled by CFRSorp software. The sample temperature was maintained at 25° C. by a Huber recirculating water bath. The humidity was controlled by mixing streams of dry and wet nitrogen, with a total flow rate of 250 ml·min-1. The relative humidity was measured by a calibrated Vaisala RH probe (dynamic range of 0-95% RH), located near the sample. The weight change, (mass relaxation) of the sample as a function of % RH was constantly monitored by themicrobalance (accuracy ±0.001 mg). Typically 1-3 mg of sample was placed in a tared mesh stainless steel basket under ambient conditions. The sample was loaded and unloaded at 40% RH and 25° C. (typical room conditions). A moisture sorption isotherm was performed as outlined below (2 scans giving 1 complete cycle). The standard isotherm was performed at 25° C. at 10% RH intervals over a 0-90% RH range.
The software uses a least squares minimization procedure together with a model of the mass relaxation, to predict an asymptotic value. The measured mass relaxation value must be within 5% of that predicted by the software before the next % RH value is selected. The minimum equilibration time was set to 1 hour and the maximum to 4 hours.

[2] = Storage of solid forms under temperature/humidity or ambient conditions, XRPD re-analysis; details: for change on storage: 24 hours under ambient conditions
[3] = Light Stability (Suntest Light Box); details: for Purity (%): HPLC
Procedure: Light Stability of Bendamustine Hydrochloride
Samples of Form 1 and Form 2 of Bendamustine Hydrochloride were stressed in a Suntest Light Box with a light intensity of 250 watts/m2 for 1 week with the black body temperature set to 25° C. A blank of each sample, wrapped in foil for protection, was also included in the experiment. After the experiment, samples were analyzed by XRPD and the purity was determined by HPLC.

[4] = Stability of Forms 1 and 2 (temperature/humidity storage, XRPD)
Procedure: Stability of Forms 1 and 2 of Bendamustine Hydrochloride
10 mg of bendamustine hydrochloride Form 1 (A), bendamustine hydrochloride Form 2 (B), and a 1:1 mixture of Forms 1 and 2 (C) were stored under the conditions listed in Table 7. Samples were analyzed by XRPD at 1 day, 2 week, and 6 week time points. […] The rate of this conversion appears to increase with temperature. The purity of Forms 1 and 2 after storage at 4° C./87% RH (5) and 60° C./75% RH (13) for 6 weeks was measured.

[5] = 1 week at 40° C./75% RH, hydrochloride
[6] = light stressed, 250 watts/m2, 1 week, hydrochloride

For Cl.Cn1c(CCCC(=O)O)nc2cc(N(CCCl)CCCl)ccc21 [Amorphous bendamustine hydrochloride, bendamustine hydrochloride], which “solid form by XRPD re-analysis after GVS humidity cycles” value [1] is on record?
Its value is “converted to Form 2”.

What about the “change on storage (XRPD)” value [2, 5] of the same compound?
Its value is “partial crystallization occurred”.

And the change on storage ([2]; hydrochloride)?
The change on storage was “became gummy”.

And the hygroscopicity ([2]; inferred from 24 hours under ambient conditions)?
Its hygroscopicity is “hygroscopic”.

For Cl.Cn1c(CCCC(=O)O)nc2cc(N(CCCl)CCCl)ccc21 [Form 2, bendamustine hydrochloride], which “change in crystallinity and purity during light stress test” value ([3]; 250 watts/m2, 1 week, 25° C., hydrochloride) is on record?
Its value is “significant decrease in both crystallinity and purity”.

And the XRPD ([3]; blank wrapped in foil, 1 week in light box)?
Its XRPD is “No change”.

What about the “Purity (%)” value ([3]; blank wrapped in foil, 1 week in light box, listed as Form 2 blank, hydrochloride) of the same compound?
Its value is 95.6%.

What about the “Purity (%)” value [3, 6] of the same compound?
The value was 68.7%.

And the XRPD [3, 6]?
Its XRPD is “Less crystalline (sample brown in colour)”.

And the “uptake during GVS analysis” value ([1]; between 10 and 15% RH, equating to 1 mole of water)?
Its value is 4%.

And the “solid form by XRPD re-analysis after GVS humidity cycles” value [1]?
Its value is “partial conversion occurred”.

What about the purity after storage ([4]; 4° C./87% RH (5) and 60° C./75% RH (13) for 6 weeks) of the same compound?
The purity after storage was “No large purity decreases”.

What about the “kinetic stability on storage” value ([4]; 6 weeks at 4° C./34 to 76% RH, 25° C./43 to 75% RH and 60° C./11 to 75% RH) of the same compound?
The value was “kinetically stable”.

And the “conversion of Form 2 to Form 1 on storage” value ([4]; after 6 weeks)?
The value was “No conversion of Form 2 to Form 1”.

And the “change on storage (XRPD)” value ([2]; one month at 40° C./11% RH)?
The value was “became less crystalline”.

What about the “change on storage (XRPD)” value ([2]; one month at 40° C./75% RH) of the same compound?
The value was “no significant changes”.

For Cl.Cn1c(CCCC(=O)O)nc2cc(N(CCCl)CCCl)ccc21 [Form 3, bendamustine hydrochloride], which “change on storage (XRPD)” value ([2]; 1 month under ambient conditions) is on record?
Its value is “No significant changes”.

What about the “change on storage (XRPD)” value [2, 5] of the same compound?
Its value is “conversion to Form 2”.

With Cl.Cn1c(CCCC(=O)O)nc2cc(N(CCCl)CCCl)ccc21 [Form 4, bendamustine hydrochloride] as the compound, how does the change on storage ([2]; hydrochloride) read?
The change on storage was “converted to Form 2”.
